How the values were obtained:
NCI-H226 cells = test: Intracellular metabolite levels upon supplementation; type: in vitro ADME, human; details: for intracellular levels upon supplementation: 100 μM, 48 hours
Procedure: (§1) Metabolomic analysis was performed as previously described (Liu, X., et al., Nat Cell Biol 22, 476-486 (2020)). Cells were seeded on 35 mm culture plates at a density sufficient to ensure approximately 70-80% confluence at the time of extraction. For metabolic tracer analysis of pyrimidine synthesis, HT-1080 cells were treated with RSL3 and/or Lip-1 for 2 hours and then were shifted to drug-free media containing amide-^15N-glutamine (this time point is defined as 0 hour). Metabolites were extracted at the indicated time points for subsequent analyses. Metabolites were extracted by rapidly aspirating the culture medium and then adding 0.6 mL of an 80% methanol: 20% water mixture at dry ice temperature. The plates were incubated on dry ice for 15 minutes before the cell material was scraped into eppendorf tubes pre-chilled on ice. The cell debris was pelleted by centrifugation at 13,000 RCF for 5 minutes at 4° C. and the supernatant was transferred to a fresh tube and stored on dry ice until analysis. Just prior to analysis, 500 μL of extract was dried under nitrogen gas flow and then resuspended in 100 μL water.
(§2) The complete platform consists of an Accela 1250 HPLC system, Accela Open Autosampler, MayLab Mistraswitch column oven and Exactive orbitrap mass spectrometer, controlled by the Xcalibur 3.0.63 software package. Chromatography was performed with a Phenomenex Synergi Hydro-RP column (100×2 mm, 2.5 μm particle size). Solvent A is 10 mM tributylamine and […] acetic acid in water; Solvent B is methanol. The gradient is: 0 min, 0% B; 2.5 min, 0% B; 5 min, 20% B; 7.5 min, 20% B; 13 min, 55% B; 15.5 min, 95% B; 18.5 min, 95% B; 19 min, 0% B; 25 min, 0% B. The injection volume was 10 μL. The column temperature was set to 40° C., and the flow rate was 200 μL/min. The Exactive was operated in negative ionization mode with an electrospray ionization interface. The instrument parameters are as follows: sheath gas flow rate 30 (arbitrary units), aux gas flow rate 10 (arbitrary units), sweep gas flow rate 3 (arbitrary units), spray voltage 3 kV, capillary temperature 325° C., capillary voltage −25 V, tube lens voltage −50 V. The scan range was set to 80-1000 m/z, with a maximum inject time of 250 ms, resolution of 100,000 at 1 Hz, and AGC (automatic gain control) target 1E6. The data were analyzed using the MAVEN software suite57 with signal intensity determined as the Peak Area (Top). For metabolic labeling experiments, the data were corrected to account for the natural abundance of nitrogen-15 using IsoCorrectoR (Heinrich, P., et al., Sci Rep 8, 17910 (2018)).

GPX4^low NCI-H226 cells = test: Cell viability / cell death (ferroptosis) in NCI-H226 cells; type: cell-based, human; details: pretreatment 48 hours (C-Asp, DHO, OA 100 μM; uridine 50 μM), RSL3 4 hours
Procedure: (§3) Viable cells were measured using Cell Counting Kit-8 (CCK-8, Dojindo) as previously described (Koppula, P., Zhang, Y., Shi, J., Li, W. & Gan, B, J Biol Chem 292, 14240-14249 (2017); Liu, X. & Gan, B, Cell Cycle 15, 3471-3481 (2016)). Briefly, cells were seeded onto 96-well plates at a density of 2×10^4 per well. The next day, cells were treated with GPX4 or DHODH inhibitors for 4 hours. Subsequently, cells exposed to 10 μl CCK-8 reagent (100 μl medium per well) for 1 hour at 37° C., 5% CO2 in an incubator. The absorbance at a wavelength of 450 nm was determined using a FLUOstar Omega microplate reader (BMG Labtech).
(§4) Cell death was measured by propidium iodide (Roche) staining using a flow cytometer, as previously described (Dai, F., et al., Proc Natl Acad Sci USA 114, 3192-3197 (2017); Zhang, Y., et al., Cancer Res 80, 2243-2256 (2020)). For propidium iodide-staining, cells were seeded at a density of 50% confluence into 12-well plates. The next day, cells were treated with different reagents. To measure cell death, the cells were collected (including floating dead cells), stained with 5 μg/ml propidium iodide and the percentage of the propidium iodide-positive dead cell population was analyzed using the flow cytometer BD Accuri C6 (BD Biosciences) and an FL2 detector. A minimum of 10,000 single cells were analyzed per well and all experiments were carried out at least in triplicate.

[1] = system: GPX4^high and GPX4^low cancer cell lines; test: Cell viability in panel of GPX4^high and GPX4^low cancer cell lines; type: cell-based, human; details: supplementation 100 μM 48 hours, RSL3 4 hours
Procedure: as §3

[2] = system: multiple cancer cell lines; test: Global metabolomic analysis; type: cell-based, human; details: short-term (2-hour) treatment, 10 μM
Procedure: as §1, §2

DHODH KO HT-1080 cells [3] = test: Cell viability / cell death (ferroptosis) in DHODH KO HT-1080 cells; type: cell-based, human; details: for protection against GPX4 inhibition (RSL3 or ML162)-induced ferroptosis: DHODH KO, pretreatment 10 μM, 24 hours
Procedure: Knockout of DHODH, ACSL4 and COQ2 in human cell lines was performed using single guide RNAs (sgRNAs) and doxycycline (DOX)-inducible CRISPR-Cas9 expression system as described in our recent publication (Lee, H., et al., Nature cell biology 22, 225-234 (2020)). sgRNAs were cloned into the lentiviral lentiGuide vector. LentiGuide clones were transfected into HEK293T cells with psPAX2 packaging plasmid and pMD2.G expressing plasmid. Cells were infected with lentivirus with 0.8 μg/ml polybrene, selected with puromycin (1 μg/ml, InvivoGen), blasticidin (2 μg/ml, InvivoGen) or hygromycin B (2 μg/ml, InvivoGen) for 3 days and then single cells were sorted into 96-well plates. Single cells were maintained in DMEM with 10% (v/v) FBS and 1% (v/v) penicillin/streptomycin at 37° C. in an incubator with 20% O2 and 5% CO2 for 3-4 weeks and each colony was verified by western blot to confirm the target gene deletion. To generate cell lines with DOX-inducible CRISPR-Cas9-mediated gene deletion, cells were infected with lentivirus, selected with puromycin (1 μg/ml, InvivoGen), blasticidin (2 μg/ml, InvivoGen) or hygromycin B (2 μg/ml, InvivoGen) for 2 days and then single cells were sorted into 96-well plates. Once cell lines were established, 1 μg/ml of DOX (Sigma-Aldrich) was added to the media to induce target gene deletion for 48 hours after selection; then cells were cultured in DOX-free media for subsequent analyses.
as §3, §4

DHODH KO HT-1080 cells [4] = test: Mitochondrial lipid peroxidation (mito-BODIPY) in DHODH KO HT-1080 cells; type: cell-based, human; details: pretreatment 10 μM, 24 hours
GPX4^high HT-1080 cells = test: Cell viability / cell death (ferroptosis) in HT-1080 cells; type: cell-based, human; details: 24 hours; for protection against GPX4 inhibition (RSL3 or ML162)-induced ferroptosis: DHODH WT, pretreatment 10 μM
Procedure: Briefly, cells were seeded onto 96-well plates at a density of 2×10^4 per well. The next day, cells were treated with GPX4 or DHODH inhibitors for 4 hours. Subsequently, cells exposed to 10 μl CCK-8 reagent (100 μl medium per well) for 1 hour at 37° C., 5% CO2 in an incubator. The absorbance at a wavelength of 450 nm was determined using a FLUOstar Omega microplate reader (BMG Labtech).
as §4, with “For” for “Cell death was measured by propidium iodide (Roche) staining using a flow cytometer, as previously described (Dai, F., et al., Proc Natl Acad Sci USA 114, 3192-3197 (2017); Zhang, Y., et al., Cancer Res 80, 2243-2256 (2020)). For”

intracellular levels upon supplementation (NCI-H226 cells)	Compound	effect of supplementation on cellular sensitivity to GPX4 inhibition (RSL3) (GPX4^low NCI-H226 cells)	suppression of GPX4 inhibitor-induced mitochondrial lipid peroxidation (DHODH KO HT-1080 cells [4])	protection against GPX4 inhibition (RSL3 or ML162)-induced ferroptosis (GPX4^high HT-1080 cells)	protection against GPX4 inhibition (RSL3 or ML162)-induced ferroptosis (DHODH KO HT-1080 cells [3])	further results
only moderately increased	NC(=O)N[C@@H](CC(=O)O)C(=O)O [C-Asp, N-Carbamoyl-L-aspartate]	did not affect ferroptosis sensitivity	–	–	–	cell permeability (NCI-H226 cells): largely impermeable to cells
drastically increased	O=C1CC(C(=O)O)NC(=O)N1 (stereo not shown) [DHO, dihydroorotate]	protected cells from	–	–	–	protecting (DHO) or sensitizing (OA) effect in GPX4^low versus GPX4^high cell lines [1]: much more pronounced
–	COc1ccc(N(C(=O)CCl)C(C(=O)NCCc2ccccc2)c2cccs2)cc1Cl (stereo not shown) [ML162]	–	–	–	–	C-Asp level [2]: marked depletion; uridine level [2]: concomitant accumulation; sensitization by DHODH deletion to compound-induced lipid peroxidation and ferroptosis (DHODH KO HT-1080 cells [3]; uridine-supplemented conditions): markedly sensitized
–	CC1(C)CCCC(C)(C)N1[O] [TEMPO, 2,2,6,6-tetramethyl-1-piperidinyloxy]	–	could be suppressed	rescued	rescued	–
–	CC1(C)CC(NC(=O)C[P+](c2ccccc2)(c2ccccc2)c2ccccc2)CC(C)(C)N1[O] [mito-TEMPO, 2-(2,2,6,6-tetramethylpiperidin-1-oxyl-4-ylamino)-2-oxoethyl) triphenylphosphonium chloride]	–	could be suppressed	–	provided substantial protection	–
–	COC1=C(OC)C(=O)C(CCCCCCCCCC[P+](c2ccccc2)(c2ccccc2)c2ccccc2)=C(C)C1=O [mitoQ, [10-(4,5-dimethoxy-2-methyl-3,6-dioxo-1,4-cyclohexadien-1-yl)decyl] triphenyl-phosphonium, monomethanesulfonate]	–	–	provided limited protection	–	–
–	COc1c(O)c(C)c(CCCCCCCCCC[P+](c2ccccc2)(c2ccccc2)c2ccccc2)c(O)c1OC.CS(=O)(=O)[O-] [mitoQH2, [10-(2,5-dihydroxy-3,4-dimethoxy-6-methylphenyl)decyl] triphenyl-phosphonium, monomethanesulfonate]	–	significantly protected	provided limited protection	significantly protected	–
–	N-benzyloxycarbonyl-val-ala-asp(o-me) fluoromethyl ketone [Z-VAD-FMK]	–	–	–	–	rescue of DHODH inhibition-induced cell death (GPX4^high HT-1080 cells; BQR, pretreatment Lip-1 or ZVF 10 μM): the opposite was observed

Compound	intracellular levels upon supplementation (NCI-H226 cells)	effect of supplementation on cellular sensitivity to GPX4 inhibition (RSL3) (GPX4^low NCI-H226 cells)	suppression of GPX4 inhibitor-induced mitochondrial lipid peroxidation (DHODH KO HT-1080 cells [4])	protection against GPX4 inhibition (RSL3 or ML162)-induced ferroptosis (GPX4^high HT-1080 cells)	protection against GPX4 inhibition (RSL3 or ML162)-induced ferroptosis (DHODH KO HT-1080 cells [3])	further results
O=C(O)c1cc(=O)[nH]c(=O)[nH]1 [OA, orotate]	drastically increased	sensitized cells to	–	–	–	protecting (DHO) or sensitizing (OA) effect in GPX4^low versus GPX4^high cell lines [1]: much more pronounced

From US20240148757A1, “USE OF DIHYDROOROTATE DEHYDROGENASE (DHODH) INHIBITORS TO TARGET FERROPTOSIS IN CANCER THERAPY” (BOARD OF REGENTS, THE UNIVERSITY OF TEXAS SYSTEM, priority 2021, published 2024)
